From US20070111989A1, “Novel diazabicyclononene derivatives and use” (priority 2004, published 2007)

Biological target: T1, human recombinant renin (Homo sapiens, UniProt P00797)
T1 sequence (P00797 67-406): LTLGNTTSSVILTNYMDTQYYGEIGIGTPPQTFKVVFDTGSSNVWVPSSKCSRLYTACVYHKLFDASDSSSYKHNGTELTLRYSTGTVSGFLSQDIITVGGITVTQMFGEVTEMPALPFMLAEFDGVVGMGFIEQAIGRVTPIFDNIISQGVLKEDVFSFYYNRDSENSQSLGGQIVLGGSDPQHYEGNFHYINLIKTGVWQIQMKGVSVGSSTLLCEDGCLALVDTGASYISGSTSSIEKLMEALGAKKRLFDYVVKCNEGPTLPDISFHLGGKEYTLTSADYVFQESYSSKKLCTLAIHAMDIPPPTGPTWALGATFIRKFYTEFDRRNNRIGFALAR
Assay: Inhibition of human recombinant renin, enzymatic in vitro assay with Ang I EIA detection
Assay type: biochemical
Details: human recombinant renin 0.16 ng/mL, synthetic human angiotensin(1-14) 0.5 μM, 37° C. for 3 h; read-out: IC50 (concentration that inhibited the enzyme activity by 50%)
Experimental: Inhibition of Human Recombinant Renin by the Compounds of the Invention The enzymatic in vitro assay was performed in 384-well polypropylene plates (Nunc). The assay buffer consisted of 10 mM PBS (Gibco BRL) including 1 mM EDTA and 0.1% BSA. The incubates were composed of 50 μL per well of an enzyme mix and 2.5 μL of renin inhibitors in DMSO. The enzyme mix was premixed at 4° C. and consists of the following components: • human recombinant renin (0.16 ng/mL) • synthetic human angiotensin(1-14) (0.5 μM) • hydroxyquinoline sulfate (1 mM) The mixtures were then incubated at 37° C. for 3 h. To determine the enzymatic activity and its inhibition, the accumulated Ang I was detected by an enzyme immunoassay (EIA) in 384-well plates (Nunc). 5 μL of the incubates or standards were transferred to immuno plates which were previously coated with a covalent complex of Ang I and bovine serum albumin (Ang 1-BSA). 75 μL of Ang I-antibodies in essaybuffer above including 0.01% Tween 20 were added and a primary incubation made at 4° C. overnight. The plates were washed 3 times with PBS including 0.01% Tween 20, and then incubated for 2 h at rt with an antirabbit-peroxidase coupled antibody (WA 934, Amersham).

Row | IC50 | SMILES
1 | 1 nM | COCCOc1nccc(CN(C(=O)C2=C(c3ccc(CCCOc4c(F)ccc(F)c4Cl)cc3)C[C@@H]3CNC[C@H]2N3)C2CC2)c1C (racemic) [Example 1, (rac.)-(1R*,5S*)-7-{4-[3-(2-Chloro-3,6-difluorophenoxy)propyl]phenyl}-3,9-diazabicyclo[3.3.1]non-6-ene-6-carboxylic acid cyclopropyl-[2-(2-methoxy-ethoxy)-3-methylpyridin-4-ylmethyl]amide]
2 | 1.05 nM | COCCOc1cccc(CN(C(=O)C2=C(c3ccc(CCCOc4c(F)ccc(F)c4Cl)cc3)CC3CNCC2N3)C2CC2)c1C (racemic) [Example 2, (rac.)-(1R*,5S*)-7-{(4-[3-(2-Chloro-3,6-difluorophenoxy)propyl]phenyl}-3,9-diazabicyclo[3.3.1]non-6-ene-6-carboxylic acid cyclopropyl-[3-(2-methoxy-ethoxy)-2-methylbenzyl]amide]
